Data published in US12018049B2, “Compositions and related methods for controlling vector-borne diseases” (priority 2017, dated 2024).

Key:
[1] = tested on: Anopheles coluzzii mosquitoes; experiment: Mosquito survival after azithromycin blood meals; format: in vivo; settings: blood meals with 0.1, 1 or 5 μg/ml azithromycin; vs negative control
Asaia = Asaia quantification by qPCR in mosquito midguts; format: in vivo, Anopheles coluzzii; settings: blood meals with 0.1, 1 or 5 μg/ml azithromycin, three meals; vs control
E. coli DH5a = experiment: Antibiotic coating and penetration of corn kernels (E. coli growth on LB plates); format: cell-based, Escherichia coli; settings: kernels soaked 1.5 hours in 2.5 or 0.25 mg/ml ciprofloxacin
[2] = tested on: Sitophilus zeamais weevils; experiment: Weevil reproduction (emergence of F1 offspring); settings: 2.5 mg/ml ciprofloxacin; till day 43
[3] = tested on: Sitophilus zeamais weevils; experiment: Weevil survival; format: in vivo; settings: adult mating pairs; 250 μg/ml or 2.5 mg/ml ciprofloxacin; 18 days
Protocol: (§1) Sitophilus maize weevils (Sitophilus zeamais) were reared on organic corn at 27.5° C. and 70% relative humidity. Prior to being used for weevil rearing, corn was frozen for 7 days and then tempered to 10% humidity with sterile water. […] Ciprofloxacin (Sigma) stock solutions were made at 25 mg/ml in 0.1 N HCl, sterilized by passing through a 0.22 μm syringe filter, and stored at −20° C. For treatments, the appropriate amount of stock solution was diluted in sterile water.
(§2) Weevil survival was monitored daily for 18 days, after which DNA was extracted from the remaining weevils in each group. Briefly, the weevil body was surface sterilized by dipping the weevil into a 6% bleach solution for approximately 5 seconds. Weevils were then rinsed in sterile water and DNA was extracted from each individual […] using a DNA extraction kit (Qiagen, DNeasy kit) according to manufacturer's instructions. […]; SEQ ID NO: 245). […]; SEQ ID NO: 247) (Login et al., 2011). qPCR was performed using a qPCR amplification ramp of 1.6 degrees C./s and the following conditions: 1) 95° C. for 10 minutes, 2) 95° C. for 15 seconds, 3) 57° C. for 30 seconds, 4) repeat steps 2-3 40×, 5) 95° C. for 15 seconds, 6) 55° C. for 1 minute, 7) ramp change to 0.15 degrees C./s, 8) 95° C. for 1 second. qPCR data was analyzed using analytic (Thermo Fisher Scientific, QuantStudio Design and Analysis) software.

[4] = tested on: Sitophilus primary endosymbiont (SPE, Candidatus Sodalis pierantonius); experiment: SPE levels in weevils by qPCR; format: in vivo, Sitophilus zeamais; settings: for SPE amount, fold higher in water-treated than in treated weevils: F0 adults, 18 days
Protocol: as §1, §2

[5] = tested on: Acyrthosiphon pisum aphids; experiment: Aphid survival monitored daily; format: in vivo
Buchnera = experiment: Buchnera/aphid DNA copy number by qPCR; format: in vivo, Acyrthosiphon pisum
[6] = tested on: Acyrthosiphon pisum aphids; experiment: Aphid fecundity (offspring counts); format: in vivo; settings: eNASCO, control approximately 7
Protocol: (§3) In addition, the developmental stage (1st, 2nd, 3rd, 4th, 5th instar) was determined daily throughout the experiment. Once an aphid reached the 4th instar stage, they were given their own artificial feeding system in a deep petri dish so that fecundity could be monitored once they reached adulthood.
For adult aphids, new nymphs were counted daily and then discarded. At the end of the experiments, fecundity was determined as the mean number of offspring produced daily once the aphid reached adulthood. Pictures of aphids were taken throughout the experiment to evaluate size differences between treatment groups.
as §3, with “5th, and 5R (5th that has reproduced)” for “5th”
For adult aphids, new nymphs were counted daily and then discarded. At the end of the experiments, fecundity was measured in two ways: 1) the mean day at which the first offspring for the treatment group was determined and 2) the mean number of offspring produced daily once the aphid reached adulthood. […]
In addition, the developmental stage (1st, 2nd, 3rd, 4th, 5th instar) was determined daily throughout the experiment. […]

[7] = LSR-1, through plants, artificial diet without essential amino acids + 100 μg/ml rifampicin

CC[C@H]1OC(=O)[C@H](C)[C@@H](O[C@H]2C[C@@](C)(OC)[C@@H](O)[C@H](C)O2)[C@H](C)[C@@H](O[C@@H]2O[C@H](C)C[C@H](N(C)C)[C@H]2O)[C@](C)(O)C[C@@H](C)CN(C)[C@H](C)[C@@H](O)[C@]1(C)O [azithromycin]
survival rate of mosquitoes [1]: decreased compared to the control | Asaia specific genes (16S rDNA relative to S7, qPCR) (Asaia): reduction of Asaia specific genes

O=C(O)c1cn(C2CC2)c2cc(N3CCNCC3)c(F)cc2c1=O [ciprofloxacin]
bacterial growth on plate with entire soaked corn kernel (E. coli DH5a): no bacteria grew | F1 offspring emerged [2]: much less offspring | weevil survival [3]: all weevils remained alive | SPE amount, fold higher in water-treated than in treated weevils ([4]; 250 ug/ml ciprofloxacin): approximately 4 fold | SPE amount, fold higher in water-treated than in treated weevils ([4]; 2.5 mg/ml ciprofloxacin): ~8 fold | SPE levels, fold higher in water-treated than in treated F1 weevils ([4]; F1 weevils dissected from kernels, 2.5 mg/ml ciprofloxacin): approximately 4 fold

Cc1cc2c(C(C)C)c(O)c(O)c(C=O)c2c(O)c1-c1c(C)cc2c(C(C)C)c(O)c(O)c(C=O)c2c1O [gossypol, gossypol acetic acid]
time after which aphids began dying ([5]; through plants, 0.5% gossypol): 2 days | Buchnera/aphid DNA copies, fold less than control (Buchnera; through plants, 0.25 and 0.5% gossypol, 5 or 13 days): ~4 fold

CC(=O)CCC(=O)O [levulinic acid]
survival of aphids ([5]; eNASCO, 0.3% levulinic acid, 11-day experiment): survival was significantly less | Buchnera/aphid DNA copies, fold less than control (Buchnera; eNASCO, 0.03 or 0.3% levulinic acid in water, 7 days): ~6 fold

CC(C)(CO)[C@@H](O)C(=O)NCCCO [pantothenol]
survival rate of aphids ([5]; eNASCO, leaf coating, 10 uM pantothenol, p=0.0019): lower survival rates than aphids placed on coated leaves with the control solution | survival rate of aphids ([5]; eNASCO, through plants, 10 or 100 uM pantothenol): negatively affected aphid fitness | mean number of offspring per day ([6]; 10 uM pantothenol): approximately 4 offspring/day | mean number of offspring per day ([6]; 100 uM pantothenol): ~5 offspring/day | Buchnera/aphid DNA copy number (Buchnera; eNASCO, 10 or 100 uM pantothenol, 8 days): does not affect Buchnera/aphid DNA copy number directly

CO[C@H]1/C=C/O[C@@]2(C)Oc3c(C)c(O)c4c(O)c(c(/C=N/N5CCN(C)CC5)c(O)c4c3C2=O)NC(=O)/C(C)=C\C=C\[C@H](C)[C@H](O)[C@@H](C)[C@@H](O)[C@@H](C)[C@H](OC(C)=O)[C@@H]1C [rifampicin]
time after which aphids began dying [5, 7]: 1 days | time by which all aphids succumbed to treatment [5, 7]: ≤ 9 days | Buchnera/aphid DNA copies, fold less than control (Buchnera; LSR-1, through plants, 100 μg/ml rifampicin, 7 days): ~4 fold

O=C/C=C/c1ccccc1 [trans-cinnemaldehyde]
survival rates of aphids ([5]; LSR-1, 0.05%, 0.5%, and 5% trans-cinnemaldehyde, vs water): significantly lower | Buchnera/aphid DNA copies, fold less than control (Buchnera; LSR-1, 0.5 and 5% trans-cinnemaldehyde, 3 days): ~870 fold
